Test results reported in US12643903B2, “Bifunctional compounds for degradation of EGFR and related methods of use” (BeiGene, Ltd., priority 2020, dated 2026).

Legend:
EGFR [1] = molecular target: T1, EGFR (Homo sapiens, UniProt P00533, L858R/T790M); assay: Cell Degradation 1: EGFR degradation in H1975 cells, HTRF assay; type: cell-based; settings: 16 h treatment, EGFR degradation by HTRF
T1 construct: endogenous in cells; host or cells: H1975
Description: After 16 h treatment, add 100 μl 1×lysis buffer to each well; seal the plate and incubate 1 hour at room temperature on a plate shaker; Once the cells are lysed, 16 μL of cell lysate are transferred to a PE 384-well HTRF detection plate; 4 μL of pre-mixed HTRF antibodies are added to each well; Cover the plate with a plate sealer, spin 1000 rpm for 1 min, Incubate overnight at room temperature; Read on BMG PheraStar with HTRF protocol (337 nm-665 nm-620 nm).
(§1) The IC50 (DC50) value of a compound can be obtained by fitting the following equation Y=Bottom+(TOP−Bottom)/(1+((IC50/X)^hillslope))
(§2) Wherein, X and Y are known values, and IC50, Hillslope, Top and Bottom are the parameters obtained by fitting with software. Y is the inhibition percentage (calculated from the equation), X is the concentration of the compound; IC50 is the concentration of the compound when the 50% inhibition is reached. The smaller the IC50 value is, the stronger the inhibitory ability of the compound is. Vice versa, the higher the IC50 value is, the weaker the ability the inhibitory ability of the compound is; Hillslope represents the slope of the fitted curve, generally around 1*; Bottom represents the minimum value of the curve obtained by data fitting, which is generally 0%±20%; Top represents the maximum value of the curve obtained by data fitting, which is generally 100%±20%. The experimental data were fitted by calculating and analyzing with Dotmatics data analysis software.

EGFR [2] = molecular target: T2, EGFR (Homo sapiens, UniProt P00533, DEL746-750); assay: Cell Degradation 2: EGFR degradation in HCC827 cells, HTRF assay; type: cell-based; settings: 16 h treatment, EGFR degradation by HTRF
T2 construct: endogenous in cells; host or cells: HCC827
T2 sequence (P00533 with tags, fused parts or gaps DEL746-750): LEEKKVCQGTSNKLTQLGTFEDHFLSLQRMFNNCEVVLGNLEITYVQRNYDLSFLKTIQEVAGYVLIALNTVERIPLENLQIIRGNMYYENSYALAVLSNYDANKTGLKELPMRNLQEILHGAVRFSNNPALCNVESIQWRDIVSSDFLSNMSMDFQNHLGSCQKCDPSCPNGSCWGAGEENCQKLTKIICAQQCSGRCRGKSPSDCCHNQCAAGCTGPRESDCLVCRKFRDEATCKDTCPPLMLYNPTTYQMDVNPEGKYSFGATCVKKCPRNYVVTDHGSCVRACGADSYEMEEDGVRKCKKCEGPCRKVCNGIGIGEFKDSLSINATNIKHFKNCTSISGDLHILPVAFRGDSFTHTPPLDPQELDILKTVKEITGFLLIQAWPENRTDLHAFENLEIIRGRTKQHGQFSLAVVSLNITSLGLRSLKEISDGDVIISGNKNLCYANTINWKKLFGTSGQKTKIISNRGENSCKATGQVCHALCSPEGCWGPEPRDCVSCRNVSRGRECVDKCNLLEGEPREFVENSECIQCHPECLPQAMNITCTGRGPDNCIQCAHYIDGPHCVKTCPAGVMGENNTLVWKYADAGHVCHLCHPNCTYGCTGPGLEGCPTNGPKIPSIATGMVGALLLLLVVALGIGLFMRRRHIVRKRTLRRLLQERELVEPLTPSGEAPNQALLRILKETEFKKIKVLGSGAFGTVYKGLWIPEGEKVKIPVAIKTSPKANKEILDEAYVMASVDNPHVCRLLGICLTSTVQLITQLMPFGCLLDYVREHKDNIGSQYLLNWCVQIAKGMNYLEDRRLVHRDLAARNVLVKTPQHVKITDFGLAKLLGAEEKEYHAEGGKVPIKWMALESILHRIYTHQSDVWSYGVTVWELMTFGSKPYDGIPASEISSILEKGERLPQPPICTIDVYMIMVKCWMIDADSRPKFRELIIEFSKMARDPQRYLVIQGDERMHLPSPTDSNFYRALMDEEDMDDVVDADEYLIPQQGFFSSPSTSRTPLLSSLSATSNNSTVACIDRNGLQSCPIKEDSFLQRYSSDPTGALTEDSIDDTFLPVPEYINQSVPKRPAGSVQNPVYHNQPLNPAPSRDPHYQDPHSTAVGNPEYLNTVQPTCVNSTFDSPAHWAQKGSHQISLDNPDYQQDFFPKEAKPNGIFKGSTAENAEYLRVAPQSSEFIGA
T2 sequence (Q96SW2 whole entry partner): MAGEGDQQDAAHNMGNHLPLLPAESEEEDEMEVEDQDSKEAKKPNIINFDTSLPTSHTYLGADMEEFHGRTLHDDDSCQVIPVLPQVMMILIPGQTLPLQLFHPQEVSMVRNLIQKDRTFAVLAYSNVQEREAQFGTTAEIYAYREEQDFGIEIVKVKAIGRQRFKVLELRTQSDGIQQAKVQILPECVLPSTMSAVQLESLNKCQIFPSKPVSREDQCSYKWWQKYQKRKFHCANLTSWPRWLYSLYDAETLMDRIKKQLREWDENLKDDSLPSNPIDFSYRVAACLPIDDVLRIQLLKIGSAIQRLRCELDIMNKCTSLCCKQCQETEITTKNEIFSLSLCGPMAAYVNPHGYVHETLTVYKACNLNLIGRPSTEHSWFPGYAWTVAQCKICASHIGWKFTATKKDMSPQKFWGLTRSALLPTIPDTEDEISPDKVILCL
Description: After 16 h treatment, add 100 μl 1×lysis buffer to each well; seal the plate and incubate 1 hour at room temperature on a plate shaker; Once the cells are lysed, 16 μl diluted (2 μL to 14 μl 1× lysisi buffer) cell lysate are transferred to a PE 384-well HTRF detection plate; 4 μL of pre-mixed HTRF antibodies are added to each well; Cover the plate with a plate sealer, spin 1000 rpm for 1 min, Incubate overnight at room temperature; Read on BMG PheraStar with HTRF protocol (337 nm-665 nm-620 nm).
as §1, §2

T1 sequence (P00533 25-1210 T790M/L858R): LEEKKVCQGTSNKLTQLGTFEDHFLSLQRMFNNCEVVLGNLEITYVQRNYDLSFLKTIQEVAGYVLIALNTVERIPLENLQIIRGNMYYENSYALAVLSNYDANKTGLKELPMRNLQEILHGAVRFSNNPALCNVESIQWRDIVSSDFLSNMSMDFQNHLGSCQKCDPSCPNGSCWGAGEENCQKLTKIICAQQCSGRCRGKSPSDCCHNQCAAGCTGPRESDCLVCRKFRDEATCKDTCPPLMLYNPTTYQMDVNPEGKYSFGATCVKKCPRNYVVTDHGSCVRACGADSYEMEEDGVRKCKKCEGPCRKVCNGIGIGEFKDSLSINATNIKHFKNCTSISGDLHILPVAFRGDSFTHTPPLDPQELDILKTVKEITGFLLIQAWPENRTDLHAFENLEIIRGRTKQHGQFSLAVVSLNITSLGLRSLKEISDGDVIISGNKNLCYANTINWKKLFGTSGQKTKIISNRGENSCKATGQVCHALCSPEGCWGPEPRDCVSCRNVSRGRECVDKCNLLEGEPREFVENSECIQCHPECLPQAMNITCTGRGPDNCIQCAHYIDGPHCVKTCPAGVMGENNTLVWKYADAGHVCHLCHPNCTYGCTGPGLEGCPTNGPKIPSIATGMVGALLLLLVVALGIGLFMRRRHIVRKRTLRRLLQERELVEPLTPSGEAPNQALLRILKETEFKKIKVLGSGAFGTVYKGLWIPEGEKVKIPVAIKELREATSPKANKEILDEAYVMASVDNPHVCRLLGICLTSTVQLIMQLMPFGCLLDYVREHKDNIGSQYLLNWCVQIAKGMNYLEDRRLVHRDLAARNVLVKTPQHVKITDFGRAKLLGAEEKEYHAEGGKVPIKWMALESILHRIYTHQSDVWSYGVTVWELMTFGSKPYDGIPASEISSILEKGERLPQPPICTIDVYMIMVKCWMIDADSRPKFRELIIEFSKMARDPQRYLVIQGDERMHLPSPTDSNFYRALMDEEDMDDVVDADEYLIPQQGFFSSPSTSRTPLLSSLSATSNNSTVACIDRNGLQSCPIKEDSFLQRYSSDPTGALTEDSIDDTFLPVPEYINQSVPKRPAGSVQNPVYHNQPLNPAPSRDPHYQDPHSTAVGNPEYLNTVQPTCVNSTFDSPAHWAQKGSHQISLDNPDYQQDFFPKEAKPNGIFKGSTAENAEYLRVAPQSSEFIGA

Structure (SMILES) | DC50 (EGFR [1]) [nM] | DC50 (EGFR [2]) [nM]
COc1cc(N2CCC(N3CCN(CCC4CCN(c5ccc(C6CCC(=O)NC6=O)cc5)CC4)CC3)CC2)c(C)cc1Nc1ncc(Br)c(Nc2cccc3c2N(S(C)(=O)=O)CC3)n1 (centres unmarked) [Example 41, 3-(4-(4-(2-(4-(1-(4-((5-bromo-4-((1-(methylsulfonyl)indolin-7-yl)amino)pyrimidin-2-yl)amino)-5-methoxy-2-methylphenyl)piperidin-4-yl)piperazin-1-yl)ethyl)piperidin-1-yl)phenyl)piperidine-2,6-dione] | 20.7 | 16.7
COc1cc(N2CCC(N3CCN(C(=O)C4CCN(CC5CCN(c6ccc7c(c6)C(=O)N(C6CCC(=O)NC6=O)C7=O)CC5)CC4)CC3)CC2)c(C)cc1Nc1ncc(Br)c(Nc2cccc3c2N(S(C)(=O)=O)CC3)n1 (centres unmarked) [Example 43, 5-(4-((4-(4-(1-(4-((5-bromo-4-((1-(methylsulfonyl)indolin-7-yl)amino)pyrimidin-2-yl)amino)-5-methoxy-2-methylphenyl)piperidin-4-yl)piperazine-1-carbonyl)piperidin-1-yl)methyl)piperidin-1-yl)-2-(2,6-dioxopiperidin-3-yl)isoindoline-1,3-dione] | 49.1 | 11.1
CN(CCC1CCN(c2ccc(C3CCC(=O)NC3=O)c(F)c2)CC1)C1CCN(c2ccc(Nc3ncc(Cl)c(Nc4cccc5c4N(S(C)(=O)=O)CC5)n3)c3c2CCO3)CC1 (centres unmarked) [Example 46, 3-(4-(4-(2-((1-(7-((5-chloro-4-((1-(methylsulfonyl)indolin-7-yl)amino)pyrimidin-2-yl)amino)-2,3-dihydrobenzofuran-4-yl)piperidin-4-yl)(methyl)amino)ethyl)piperidin-1-yl)-2-fluorophenyl)piperidine-2,6-dione] | 23.2 | 32.2
CN(CCC1CCN(c2ccc3c(c2)C(=O)N(C2CCC(=O)NC2=O)C3=O)CC1)C1CCN(c2ccc(Nc3ncc(Cl)c(Nc4cccc5c4N(S(C)(=O)=O)CC5)n3)c3c2CCO3)CC1 (centres unmarked) [Example 47, 5-(4-(2-((1-(7-((5-chloro-4-((1-(methylsulfonyl)indolin-7-yl)amino)pyrimidin-2-yl)amino)-2,3-dihydrobenzofuran-4-yl)piperidin-4-yl)(methyl)amino)ethyl)piperidin-1-yl)-2-(2,6-dioxopiperidin-3-yl)isoindoline-1,3-dione] | 21.4 | 13.8
CN(CCc1ccc(C2CCC(=O)NC2=O)c(F)c1)C1CCN(c2ccc(Nc3ncc(Cl)c(Nc4cccc5c4N(S(C)(=O)=O)CC5)n3)c3c2CCO3)CC1 (centres unmarked) [Example 48, 3-(4-(2-((1-(7-((5-chloro-4-((1-(methylsulfonyl)indolin-7-yl)amino)pyrimidin-2-yl)amino)-2,3-dihydrobenzofuran-4-yl)piperidin-4-yl)(methyl)amino)ethyl)-2-fluorophenyl)piperidine-2,6-dione] | > 10000 | 51.8
CN(CCC1CCN(c2ccc(C3CCC(=O)NC3=O)cc2)CC1)C1CCN(c2ccc(Nc3ncc(Cl)c(Nc4cccc5c4N(S(C)(=O)=O)CC5)n3)c3c2CCO3)CC1 (centres unmarked) [Example 49, 3-(4-(4-(2-((1-(7-((5-chloro-4-((1-(methylsulfonyl)indolin-7-yl)amino)pyrimidin-2-yl)amino)-2,3-dihydrobenzofuran-4-yl)piperidin-4-yl)(methyl)amino)ethyl)piperidin-1-yl)phenyl)piperidine-2,6-dione] | > 10000 | 138
CS(=O)(=O)N1CCc2cccc(Nc3nc(Nc4ccc(N5CCC(N6CCN(CCC7CCN(c8ccc(C9CCC(=O)NC9=O)c(F)c8)CC7)CC6)CC5)c5c4OCC5)ncc3Cl)c21 (centres unmarked) [Example 51, 3-(4-(4-(2-(4-(1-(7-((5-chloro-4-((1-(methylsulfonyl)indolin-7-yl)amino)pyrimidin-2-yl)amino)-2,3-dihydrobenzofuran-4-yl)piperidin-4-yl)piperazin-1-yl)ethyl)piperidin-1-yl)-2-fluorophenyl)piperidine-2,6-dione] | 19.5 | 12.4

Compounds with a lower DC50 (EGFR [1]), results first:

DC50 (EGFR [1]) [nM] | DC50 (EGFR [2]) [nM] | Structure (SMILES)
13.5 | 4.9 | COc1cc(N2CCC(N3CCN(C(=O)CCN4CCN(c5ccc6c(c5)C(=O)N(C5CCC(=O)NC5=O)C6=O)CC4)CC3)CC2)c(C)cc1Nc1ncc(Br)c(Nc2cccc3c2N(S(C)(=O)=O)CC3)n1 (centres unmarked) [Example 42, 5-(4-(3-(4-(1-(4-((5-bromo-4-((1-(methylsulfonyl)indolin-7-yl)amino)pyrimidin-2-yl)amino)-5-methoxy-2-methylphenyl)piperidin-4-yl)piperazin-1-yl)-3-oxopropyl)piperazin-1-yl)-2-(2,6-dioxopiperidin-3-yl)isoindoline-1,3-dione]
10.9 | 4.6 | COc1cc(N2CCC(N3CCN(CCCC4CN(c5ccc6c(c5)C(=O)N(C5CCC(=O)NC5=O)C6=O)C4)CC3)CC2)c(C)cc1Nc1ncc(Br)c(Nc2cccc3c2N(S(C)(=O)=O)CC3)n1 (centres unmarked) [Example 44, 5-(3-(3-(4-(1-(4-((5-bromo-4-((1-(methylsulfonyl)indolin-7-yl)amino)pyrimidin-2-yl)amino)-5-methoxy-2-methylphenyl)piperidin-4-yl)piperazin-1-yl)propyl)azetidin-1-yl)-2-(2,6-dioxopiperidin-3-yl)isoindoline-1,3-done]
10.6 | 33.6 | CS(=O)(=O)N1CCc2cccc(Nc3nc(Nc4ccc(N5CCN(CCC6CCN(c7ccc(C8CCC(=O)NC8=O)cc7)CC6)CC5)c(F)c4)nc4[nH]ccc34)c21 (centres unmarked) [Example 27, 3-(4-(4-(2-(4-(2-fluoro-4-((4-((1-(methylsulfonyl)indolin-7-yl)amino)-7H-pyrrolo[2,3-d]pyrimidin-2-yl)amino)phenyl)piperazin-1-yl)ethyl)piperidin-1-yl)phenyl)piperidine-2,6-dione]
10.5 | 8.2 | COc1cc(N2CCC(N3CCN(CC4CCN(c5ccc(C6CCC(=O)NC6=O)cc5)CC4)CC3)CC2)c(C)cc1Nc1ncc(Br)c(Nc2cccc3c2N(S(C)(=O)=O)CC3)n1 (centres unmarked) [Example 40, 3-(4-(4-((4-(1-(4-((5-bromo-4-((1-(methylsulfonyl)indolin-7-yl)amino)pyrimidin-2-yl)amino)-5-methoxy-2-methylphenyl)piperidin-4-yl)piperazin-1-yl)methyl)piperidin-1-yl)phenyl)piperidine-2,6-dione]
7.5 | 36.9 | CN(CCCC1CN(c2ccc3c(c2)C(=O)N(C2CCC(=O)NC2=O)C3=O)C1)C1CCN(c2ccc(Nc3ncc(Cl)c(Nc4cccc5c4N(S(C)(=O)=O)CC5)n3)c3c2CCO3)CC1 (centres unmarked) [Example 50, 5-(3-(3-((1-(7-((5-chloro-4-((1-(methylsulfonyl)indolin-7-yl)amino)pyrimidin-2-yl)amino)-2,3-dihydrobenzofuran-4-yl)piperidin-4-yl)(methyl)amino)propyl)azetidin-1-yl)-2-(2,6-dioxopiperidin-3-yl)isoindoline-1,3-dione]
7 | 3.5 | CS(=O)(=O)N1CCc2cccc(Nc3nc(Nc4ccc(N5CCC(N6CCN(CCC7CCN(c8ccc9c(c8)C(=O)N(C8CCC(=O)NC8=O)C9=O)CC7)CC6)CC5)c5c4OCC5)ncc3Cl)c21 (centres unmarked) [Example 52, 5-(4-(2-(4-(1-(7-((5-chloro-4-((1-(methylsulfonyl)indolin-7-yl)amino)pyrimidin-2-yl)amino)-2,3-dihydrobenzofuran-4-yl)piperidin-4-yl)piperazin-1-yl)ethyl)piperidin-1-yl)-2-(2,6-dioxopiperidin-3-yl)isoindoline-1,3-dione]
